Data on 28 compounds can be found in patent publication US8791107B2, “N-substituted oxazinopteridines and oxazinopteridinones” (Takeda Pharmaceutical Company Limited, priority 2011, dated 2014).

T1 sequence (O00329 whole entry): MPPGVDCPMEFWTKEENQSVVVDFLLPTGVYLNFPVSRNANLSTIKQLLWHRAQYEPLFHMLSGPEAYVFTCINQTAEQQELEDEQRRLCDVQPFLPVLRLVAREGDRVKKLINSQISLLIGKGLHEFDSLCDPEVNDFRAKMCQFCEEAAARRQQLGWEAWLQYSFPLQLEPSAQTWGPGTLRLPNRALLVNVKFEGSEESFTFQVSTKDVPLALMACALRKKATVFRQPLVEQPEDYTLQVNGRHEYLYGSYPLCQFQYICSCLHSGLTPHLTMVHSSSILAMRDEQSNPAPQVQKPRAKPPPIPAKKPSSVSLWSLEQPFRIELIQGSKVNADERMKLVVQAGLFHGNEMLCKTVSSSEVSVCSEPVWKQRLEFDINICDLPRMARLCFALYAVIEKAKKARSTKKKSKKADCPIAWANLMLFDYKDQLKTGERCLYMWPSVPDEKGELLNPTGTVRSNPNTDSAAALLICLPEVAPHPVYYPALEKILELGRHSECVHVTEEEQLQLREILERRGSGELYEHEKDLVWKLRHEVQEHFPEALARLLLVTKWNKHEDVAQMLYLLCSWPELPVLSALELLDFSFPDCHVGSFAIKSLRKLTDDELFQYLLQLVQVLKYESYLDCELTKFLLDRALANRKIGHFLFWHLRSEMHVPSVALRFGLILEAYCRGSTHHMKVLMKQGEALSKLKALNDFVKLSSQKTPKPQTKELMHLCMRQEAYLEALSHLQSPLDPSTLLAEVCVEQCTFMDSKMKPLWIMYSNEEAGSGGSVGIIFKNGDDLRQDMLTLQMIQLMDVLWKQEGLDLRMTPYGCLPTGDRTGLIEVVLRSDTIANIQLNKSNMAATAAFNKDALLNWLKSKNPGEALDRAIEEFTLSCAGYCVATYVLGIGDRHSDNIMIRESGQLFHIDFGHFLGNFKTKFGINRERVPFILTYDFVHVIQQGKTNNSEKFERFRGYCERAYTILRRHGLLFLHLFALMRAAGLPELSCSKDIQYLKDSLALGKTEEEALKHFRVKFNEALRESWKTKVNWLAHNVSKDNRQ
T1 sequence (P27986 whole entry partner): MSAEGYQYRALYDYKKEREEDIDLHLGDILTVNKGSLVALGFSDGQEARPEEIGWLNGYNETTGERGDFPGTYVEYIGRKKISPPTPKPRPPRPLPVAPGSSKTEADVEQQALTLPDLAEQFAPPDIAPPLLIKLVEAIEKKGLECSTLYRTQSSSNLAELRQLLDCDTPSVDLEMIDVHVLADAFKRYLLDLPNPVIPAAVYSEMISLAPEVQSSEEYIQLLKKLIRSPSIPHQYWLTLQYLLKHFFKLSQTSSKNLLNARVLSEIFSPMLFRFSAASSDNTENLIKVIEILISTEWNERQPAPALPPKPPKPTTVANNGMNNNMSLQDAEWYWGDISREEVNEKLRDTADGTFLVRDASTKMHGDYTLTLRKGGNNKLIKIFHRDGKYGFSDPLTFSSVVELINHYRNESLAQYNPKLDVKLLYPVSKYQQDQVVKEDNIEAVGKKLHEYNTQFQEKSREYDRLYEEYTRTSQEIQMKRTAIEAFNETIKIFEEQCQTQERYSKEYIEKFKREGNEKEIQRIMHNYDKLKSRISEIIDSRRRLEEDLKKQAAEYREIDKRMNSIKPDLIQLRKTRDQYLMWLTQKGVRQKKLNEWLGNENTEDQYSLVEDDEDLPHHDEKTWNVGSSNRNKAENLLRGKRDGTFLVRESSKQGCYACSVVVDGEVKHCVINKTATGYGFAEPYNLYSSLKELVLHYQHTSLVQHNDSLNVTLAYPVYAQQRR

The experiment has as its target T1, PI3Kδ (Homo sapiens, UniProt O00329).
T1 construct: The protein is full length and co-expressed with untagged PIK3R1; GST; purchased Invitrogen PV5274
As to the kind of experiment: PI3Kδ inhibition, modified PIK3CD Adapta TR-FRET assay. The class given is biochemical. The conditions noted are these: recombinant GST-tagged full length PIK3CD co-expressed with PIK3R1 (p85α); 2 μM ATP, 50 μM PIP2; read-out: PI3Kδ Inhibition (pIC50) (converted). A digest of the protocol: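 Full-length GST-PIK3CD co-expressed with p85α was run in 50 mM HEPES pH 7.5, 3 mM MgCl2, 1 mM EGTA, 100 mM NaCl, 0.03% CHAPS, 2 mM DTT, 1% DMSO, with 12-point compound titrations. Reactions at room temperature were started with solution containing 2 μM ATP and 50 μM PIP2. ADP was detected by Adapta TR-FRET (620 nm-ratioed).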
(In TR-FRET formats the signal depends on donor and acceptor labels being close together.)
`CC(=O)Nc1ccc(-c2ncc3c(n2)N2CCOCC2C(=O)N3Cc2ccc(S(C)(=O)=O)cc2)cc1` (stereo not shown) [Example 112, N-(4-(5-(4-(methylsulfonyl)benzyl)-6-oxo-5,6,6a,7,9,10-hexahydro-[1,4]oxazino[3,4-h]pteridin-2-yl)phenyl)acetamide]: the IC50 is 31.6 nM.

Consider `c1cc(-c2ncc3c(n2)N2CCOCC2CN3)c2cc[nH]c2n1` (stereo not shown) [Example 15, 2-(1H-pyrrolo[2,3-b]pyridin-4-yl)-5,6,6a,7,9,10-hexahydro-[1,4]oxazino[3,4-h]pteridine], for which the IC50 is 398 nM.

As for `CS(=O)(=O)c1ccc(CN2C(=O)C3COCCN3c3nc(-c4ccc(N)nc4)ncc32)cc1` (stereo not shown) [Example 106, 2-(6-aminopyridin-3-yl)-5-(4-(methylsulfonyl)benzyl)-6a,7,9,10-tetrahydro-[1,4]oxazino[3,4-h]pteridin-6(5H)-one], the IC50 is 7.94 nM.

Take `CS(=O)(=O)c1ccc(CN2C(=O)C3COCCN3c3nc(-c4c[nH]c5c(Cl)cccc45)ncc32)cc1` (stereo not shown) [Example 134, 2-(7-chloro-1H-indol-3-yl)-5-(4-(methylsulfonyl)benzyl)-6a,7,9,10-tetrahydro-[1,4]oxazino[3,4-h]pteridin-6(5H)-one]: the IC50 was over 100 nM.

`N#Cc1cccc(-c2ncc3c(n2)N2CCOC[C@H]2CN3CC(=O)NCC2CCOCC2)c1` [Example 218, (R)-2-(2-(3-cyanophenyl)-6a,7,9,10-tetrahydro-[1,4]oxazino[3,4-h]pteridin-5(6H)-yl)-N-((tetrahydro-2H-pyran-4-yl)methyl)acetamide]: the IC50 was 1260 nM.

As for `CCOC(=O)c1cncc(N2C[C@@H]3COCCN3c3nc(-c4cccc5[nH]ccc45)ncc32)c1` [Example 198, (R)-ethyl 5-(2-(1H-indol-4-yl)-6a,7,9,10-tetrahydro-[1,4]oxazino[3,4-h]pteridin-5(6H)-yl)nicotinate], the IC50 is 15.8 nM.

In the case of `O=C(Cc1coc2ccccc12)N1CC2COCCN2c2nc(-c3cccc4[nH]ccc34)ncc21` (stereo not shown) [Example 52, 1-(2-(1H-indol-4-yl)-6a,7,9,10-tetrahydro-[1,4]oxazino[3,4-h]pteridin-5(6H)-yl)-2-(benzofuran-3-yl)ethanone], the IC50 is 398 nM.

Turning to `c1cc(-c2ncc3c(n2)N2CCOCC2CN3Cc2ncco2)c2cc[nH]c2c1` (stereo not shown) [Example 39, 2-(1H-indol-4-yl)-5-(oxazol-2-ylmethyl)-5,6,6a,7,9,10-hexahydro-[1,4]oxazino[3,4-h]pteridine], the IC50 is 20 nM.

For the compound `CC(C)(O)CNC(=O)CN1C[C@@H]2COCCN2c2nc(-c3cccc4[nH]ccc34)ncc21` [Example 71, (R)-2-(2-(1H-indol-4-yl)-6a,7,9,10-tetrahydro-[1,4]oxazino[3,4-h]pteridin-5(6H)-yl)-N-(2-hydroxy-2-methylpropyl)acetamide], the IC50 was 398 nM.

For the compound `Nc1ncc(-c2ncc3c(n2)N2CCOCC2CN3)cn1` (stereo not shown) [Example 1, 5-(5,6,6a,7,9,10-hexahydro-[1,4]oxazino[3,4-h]pteridin-2-yl)pyrimidin-2-amine], the IC50 is 31.6 nM.

Take `CS(=O)(=O)c1ccc(CN2C(=O)C3COCCN3c3nc(-c4ccc(N)c(N)c4)ncc32)cc1` (stereo not shown) [Example 131, 2-(3,4-diaminophenyl)-5-(4-(methylsulfonyl)benzyl)-6a,7,9,10-tetrahydro-[1,4]oxazino[3,4-h]pteridin-6(5H)-one]: the IC50 is 126 nM.

On to `CNC(=O)Nc1ccc(-c2ncc3c(n2)N2CCOCC2CN3CC2CC2)cc1` (stereo not shown) [Example 64, 1-(4-(5-(cyclopropylmethyl)-5,6,6a,7,9,10-hexahydro-[1,4]oxazino[3,4-h]pteridin-2-yl)phenyl)-3-methylurea], for which the IC50 is 39.8 nM.

As to `COc1cc(C#N)ccc1CN1CC2COCCN2c2nc(-c3cccc4[nH]ccc34)ncc21` (stereo not shown) [Example 47, 4-((2-(1H-indol-4-yl)-6a,7,9,10-tetrahydro-[1,4]oxazino[3,4-h]pteridin-5(6H)-yl)methyl)-3-methoxybenzonitrile], the IC50 was 158 nM.

Take `CNC(=O)Nc1ccc(-c2ncc3c(n2)N2CCOCC2C(=O)N3C2(c3ccc(Cl)cc3)CC2)cc1` (stereo not shown) [Example 99, 1-(4-(5-(1-(4-chlorophenyl)cyclopropyl)-6-oxo-5,6,6a,7,9,10-hexahydro-[1,4]oxazino[3,4-h]pteridin-2-yl)phenyl)-3-methylurea]: the IC50 was 6.31 nM.

Consider `CS(=O)(=O)c1ccc(CN2C[C@@H]3COCCN3c3nc(-c4cccc5[nH]ccc45)ncc32)cc1` [Example 29, (R)-2-(1H-indol-4-yl)-5-(4-(methylsulfonyl)benzyl)-5,6,6a,7,9,10-hexahydro-[1,4]oxazino[3,4-h]pteridine], for which the IC50 was 5.01 nM.

In the case of `O=C1C2COCCN2c2nc(-c3cn[nH]c3)ncc2N1[C@H]1CCc2ccccc21` (stereo partly drawn) [Example 96, 5-((S)-2,3-dihydro-1H-inden-1-yl)-2-(1H-pyrazol-4-yl)-6a,7,9,10-tetrahydro-[1,4]oxazino[3,4-h]pteridin-6(5H)-one], the IC50 is 631 nM.

With `C[C@@H](c1ccccc1)N1C(=O)C2COCCN2c2nc(-c3cc[nH]n3)ncc21` (mixture of isomers) [Example 97, 5-((5)-1-phenylethyl)-2-(1H-pyrazol-3-yl)-6a,7,9,10-tetrahydro-[1,4]oxazino[3,4-h]pteridin-6(5H)-one], the IC50 was 1000 nM.

Regarding `CS(=O)(=O)c1ccc(CN2C(=O)C3COCCN3c3nc(-c4cccc(-c5cc[nH]n5)c4)ncc32)cc1` (stereo not shown) [Example 110, 2-(3-(1H-pyrazol-3-yl)phenyl)-5-(4-(methylsulfonyl)benzyl)-6a,7,9,10-tetrahydro-[1,4]oxazino[3,4-h]pteridin-6(5H)-one], the IC50 was 3160 nM.

Consider `CS(=O)(=O)c1ccc(CN2CC3COCCN3c3nc(-c4cccc5[nH]ncc45)ncc32)cc1` (stereo not shown) [Example 22, 2-(1H-indazol-4-yl)-5-(4-(methylsulfonyl)benzyl)-5,6,6a,7,9,10-hexahydro-[1,4]oxazino[3,4-h]pteridine], for which the IC50 was 20 nM.

As for `CS(=O)(=O)c1ccc(CN2C(=O)C3COCCN3c3nc(-c4cccc(S(=O)(=O)NC5CC5)c4)ncc32)cc1` (stereo not shown) [Example 116, N-cyclopropyl-3-(5-(4-(methylsulfonyl)benzyl)-6-oxo-5,6,6a,7,9,10-hexahydro-[1,4]oxazino[3,4-h]pteridin-2-yl)benzenesulfonamide], the IC50 is 1580 nM.

For `CC(C)NC(=O)CN1CC2COCCN2c2nc(-c3cccc4[nH]ccc34)ncc21` (stereo not shown) [Example 42, 2-(2-(1H-indol-4-yl)-6a,7,9,10-tetrahydro-[1,4]oxazino[3,4-h]pteridin-5(6H)-yl)-N-isopropylacetamide], the IC50 was 501 nM.

Turning to `CNC(=O)Nc1ccc(-c2ncc3c(n2)N2CCOCC2CN3Cc2ccc(Cl)cc2)cc1` (stereo not shown) [Example 63, 1-(4-(5-(4-chlorobenzyl)-5,6,6a,7,9,10-hexahydro-[1,4]oxazino[3,4-h]pteridin-2-yl)phenyl)-3-methylurea], the IC50 was 2510 nM.

Consider `O=C(CN1C[C@@H]2COCCN2c2nc(-c3cccc4[nH]ccc34)ncc21)NC1CC1` [Example 207, (R)-2-(2-(1H-indol-4-yl)-6a,7,9,10-tetrahydro-[1,4]oxazino[3,4-h]pteridin-5(6H)-yl)-N-cyclopropylacetamide], for which the IC50 was 251 nM.

For the compound `NC(=O)c1ccc(F)c(CN2CC3COCCN3c3nc(-c4cccc5[nH]ccc45)ncc32)c1` (stereo not shown) [Example 77, 3-((2-(1H-indol-4-yl)-6a,7,9,10-tetrahydro-[1,4]oxazino[3,4-h]pteridin-5(6H)-yl)methyl)-4-fluorobenzamide], the IC50 was 50.1 nM.

On to `Cc1nnc(CN2C(=O)C3COCCN3c3nc(-n4c(C(F)F)nc5ccccc54)ncc32)o1` (stereo not shown) [Example 157, 2-(2-(difluoromethyl)-1H-benzo[d]imidazol-1-yl)-5-((5-methyl-1,3,4-oxadiazol-2-yl)methyl)-6a,7,9,10-tetrahydro-[1,4]oxazino[3,4-h]pteridin-6(5H)-one], for which the IC50 is 39.8 nM.

As for `CC(C)(C)OC(=O)CN1C[C@@H]2COCCN2c2nc(-c3cccc4[nH]ccc34)ncc21` [Example 68, (R)-tert-butyl 2-(2-(1H-indol-4-yl)-6a,7,9,10-tetrahydro-[1,4]oxazino[3,4-h]pteridin-5(6H)-yl)acetate], the IC50 was 50.1 nM.

As for `CNC(=O)Nc1ccc(-c2ncc3c(n2)N2CCOCC2C(=O)N3[C@H](C)c2ccc(Cl)cc2)cc1` (stereo partly drawn) [Example 84, 1-(4-(5-((R)-1-(4-chlorophenyl)ethyl)-6-oxo-5,6,6a,7,9,10-hexahydro-[1,4]oxazino[3,4-h]pteridin-2-yl)phenyl)-3-methylurea], the IC50 is 126 nM.

For `CCc1nnc(CN2C[C@@H]3COCCN3c3nc(-c4cncc5[nH]ccc45)ncc32)o1` [Example 167, (R)-5-((5-ethyl-1,3,4-oxadiazol-2-yl)methyl)-2-(1H-pyrrolo[2,3-c]pyridin-4-yl)-5,6,6a,7,9,10-hexahydro-[1,4]oxazino[3,4-h]pteridine], the IC50 was 1000 nM.
